Measured values reported in ChEMBL document CHEMBL3991601, “The target landscape of clinical kinase drugs” (Science, 2017).
The source made the active and inactive calls.

What follows are compounds tested against T1, UMP-CMP kinase (Homo sapiens, UniProt P30085).
T1 sequence (P30085 whole entry): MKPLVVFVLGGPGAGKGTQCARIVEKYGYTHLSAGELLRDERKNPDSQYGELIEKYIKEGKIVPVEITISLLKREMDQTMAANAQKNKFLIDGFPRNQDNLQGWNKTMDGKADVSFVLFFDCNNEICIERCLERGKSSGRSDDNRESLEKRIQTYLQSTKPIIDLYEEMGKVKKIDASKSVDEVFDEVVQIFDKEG
Also: in the data inactive means no Kd found up to 30 µM.

Q: Which Kd does the source give for `Cc1nc(N)sc1-c1ccnc(Nc2ccc(N3CCOCC3)cc2)n1` [CYC-116] here?
A: > 30 µM (inactive)

Q: Which Kd does the source give for `CCn1c(-c2nonc2N)nc2c(C#CC(C)(C)O)ncc(OC[C@H]3CCCNC3)c21` [GSK-690693] here?
A: > 30 µM (inactive)

Q: With `Cn1cc(-c2ccc(F)c(C(F)(F)F)c2)nc1C1CCN(c2ncnc3[nH]ncc23)CC1` [LY-2584702] as the compound, how does the Kd read?
A: > 30 µM (inactive)

The compounds below were run against T2, Ephrin type-A receptor 1 (Homo sapiens, UniProt P21709).
T2 sequence (P21709 whole entry): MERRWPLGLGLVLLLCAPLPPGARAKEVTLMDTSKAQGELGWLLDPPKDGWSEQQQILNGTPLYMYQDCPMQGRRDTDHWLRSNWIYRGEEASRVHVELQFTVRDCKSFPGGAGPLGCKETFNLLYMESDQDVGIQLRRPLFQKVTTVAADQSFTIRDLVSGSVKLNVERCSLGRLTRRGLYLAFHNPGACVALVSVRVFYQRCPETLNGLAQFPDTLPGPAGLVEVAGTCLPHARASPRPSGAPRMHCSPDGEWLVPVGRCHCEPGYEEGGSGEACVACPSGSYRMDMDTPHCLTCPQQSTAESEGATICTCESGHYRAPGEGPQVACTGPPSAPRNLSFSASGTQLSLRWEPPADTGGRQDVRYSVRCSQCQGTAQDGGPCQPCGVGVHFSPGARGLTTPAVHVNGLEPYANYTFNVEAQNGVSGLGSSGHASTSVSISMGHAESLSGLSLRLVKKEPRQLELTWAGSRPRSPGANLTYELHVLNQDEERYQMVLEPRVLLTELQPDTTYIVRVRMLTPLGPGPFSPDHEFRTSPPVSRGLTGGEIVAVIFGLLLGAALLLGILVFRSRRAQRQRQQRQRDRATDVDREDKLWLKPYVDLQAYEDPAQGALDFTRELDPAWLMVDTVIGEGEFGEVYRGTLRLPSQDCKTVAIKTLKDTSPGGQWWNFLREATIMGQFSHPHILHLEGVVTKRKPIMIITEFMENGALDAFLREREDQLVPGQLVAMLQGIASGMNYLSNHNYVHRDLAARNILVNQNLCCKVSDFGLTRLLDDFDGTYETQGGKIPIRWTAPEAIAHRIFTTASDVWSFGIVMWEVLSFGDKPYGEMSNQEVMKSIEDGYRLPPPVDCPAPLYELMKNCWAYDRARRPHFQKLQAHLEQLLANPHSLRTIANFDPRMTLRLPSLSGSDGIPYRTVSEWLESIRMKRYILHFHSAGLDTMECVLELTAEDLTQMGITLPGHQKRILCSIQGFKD

Q: With `Cn1cc(-c2ccc(F)c(C(F)(F)F)c2)nc1C1CCN(c2ncnc3[nH]ncc23)CC1` [LY-2584702] as the compound, how does the Kd read?
A: > 30 µM (inactive)

Q: With `CNC(=O)c1ccc(C)c(-n2c(C)cc(OCc3ccc(F)cc3F)c(Br)c2=O)c1` [PH-797804] as the compound, how does the Kd read?
A: > 30 µM (inactive)

Q: `CN(C)C(=O)c1cc2cnc(Nc3ccc(N4CCNCC4)cn3)nc2n1C1CCCC1` [RIBOCICLIB] was tested. Which Kd did it give?
A: > 30 µM (inactive)

The compounds below were run against Ephrin type-A receptor 7 (Homo sapiens, UniProt Q15375).
Chain of Ephrin type-A receptor 7 (Q15375 whole entry): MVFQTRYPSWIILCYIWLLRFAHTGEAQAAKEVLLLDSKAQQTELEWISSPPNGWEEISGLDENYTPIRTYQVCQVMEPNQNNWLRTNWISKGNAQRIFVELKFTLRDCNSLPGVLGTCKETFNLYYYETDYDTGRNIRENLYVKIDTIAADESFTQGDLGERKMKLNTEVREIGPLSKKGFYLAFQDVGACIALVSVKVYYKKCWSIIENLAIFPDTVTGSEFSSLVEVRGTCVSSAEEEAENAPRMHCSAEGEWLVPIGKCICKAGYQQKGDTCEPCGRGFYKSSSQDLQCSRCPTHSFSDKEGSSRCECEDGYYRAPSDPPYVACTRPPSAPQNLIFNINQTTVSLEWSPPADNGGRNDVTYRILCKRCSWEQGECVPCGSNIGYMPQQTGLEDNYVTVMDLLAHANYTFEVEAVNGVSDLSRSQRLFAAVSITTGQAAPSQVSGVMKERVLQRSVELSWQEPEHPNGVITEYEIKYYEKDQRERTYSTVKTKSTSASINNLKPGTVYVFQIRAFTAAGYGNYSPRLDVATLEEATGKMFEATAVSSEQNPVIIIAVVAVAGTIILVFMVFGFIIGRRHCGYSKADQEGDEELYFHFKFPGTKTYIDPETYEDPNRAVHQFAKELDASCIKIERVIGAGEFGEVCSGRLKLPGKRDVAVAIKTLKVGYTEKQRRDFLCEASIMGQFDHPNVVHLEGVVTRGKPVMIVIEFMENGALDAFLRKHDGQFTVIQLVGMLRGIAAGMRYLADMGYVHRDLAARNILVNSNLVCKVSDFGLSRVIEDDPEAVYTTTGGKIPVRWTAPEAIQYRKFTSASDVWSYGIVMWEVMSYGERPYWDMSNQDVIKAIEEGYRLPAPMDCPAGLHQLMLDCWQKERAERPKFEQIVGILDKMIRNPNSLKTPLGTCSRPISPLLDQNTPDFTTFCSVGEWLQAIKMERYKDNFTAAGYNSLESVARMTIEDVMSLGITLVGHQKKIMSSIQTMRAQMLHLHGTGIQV

Q: `Cn1cc(-c2ccc(F)c(C(F)(F)F)c2)nc1C1CCN(c2ncnc3[nH]ncc23)CC1` [LY-2584702] was tested. Which Kd did it give?
A: > 30 µM (inactive)

Q: `C1=C/COCc2cc(ccc2OCCN2CCCC2)Nc2nccc(n2)-c2cccc(c2)COC/1` [PACRITINIB] was tested. Which Kd did it give?
A: > 30 µM (inactive)

Q: How did the Kd turn out when `CN(C)C(=O)c1cc2cnc(Nc3ccc(N4CCNCC4)cn3)nc2n1C1CCCC1` [RIBOCICLIB] was run?
A: > 30 µM (inactive)

Each compound was assayed against T3, Inhibitor of nuclear factor kappa-B kinase subunit epsilon (Homo sapiens, UniProt Q14164).
T3 sequence (Q14164 whole entry): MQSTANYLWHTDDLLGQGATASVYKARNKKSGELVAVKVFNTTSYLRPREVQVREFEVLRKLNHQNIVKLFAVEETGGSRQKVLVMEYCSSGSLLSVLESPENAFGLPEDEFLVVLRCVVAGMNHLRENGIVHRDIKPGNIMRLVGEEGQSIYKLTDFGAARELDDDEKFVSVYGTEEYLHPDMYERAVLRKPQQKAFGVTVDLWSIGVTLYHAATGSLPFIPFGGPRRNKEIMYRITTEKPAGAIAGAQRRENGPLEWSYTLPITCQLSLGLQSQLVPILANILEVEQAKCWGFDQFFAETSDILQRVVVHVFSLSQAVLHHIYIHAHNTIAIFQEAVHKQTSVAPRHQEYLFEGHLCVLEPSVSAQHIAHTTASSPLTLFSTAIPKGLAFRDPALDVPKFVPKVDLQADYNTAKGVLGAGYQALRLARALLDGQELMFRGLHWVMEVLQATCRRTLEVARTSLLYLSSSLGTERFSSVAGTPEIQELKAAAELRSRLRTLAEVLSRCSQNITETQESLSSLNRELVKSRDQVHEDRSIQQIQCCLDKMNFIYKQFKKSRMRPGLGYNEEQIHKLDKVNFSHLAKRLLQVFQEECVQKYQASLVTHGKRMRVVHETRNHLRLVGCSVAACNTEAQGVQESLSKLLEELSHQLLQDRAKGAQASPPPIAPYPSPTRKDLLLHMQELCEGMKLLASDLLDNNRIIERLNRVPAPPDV

Q: `Cn1cc(-c2ccc(F)c(C(F)(F)F)c2)nc1C1CCN(c2ncnc3[nH]ncc23)CC1` [LY-2584702] was tested. Which Kd did it give?
A: > 30 µM (inactive)

Q: For `C1=C/COCc2cc(ccc2OCCN2CCCC2)Nc2nccc(n2)-c2cccc(c2)COC/1` [PACRITINIB], which Kd is on record?
A: 0.715 µM (active)

Q: How did the Kd turn out when `CNC(=O)c1ccc(C)c(-n2c(C)cc(OCc3ccc(F)cc3F)c(Br)c2=O)c1` [PH-797804] was run?
A: > 30 µM (inactive)

Q: With `CN(C)C(=O)c1cc2cnc(Nc3ccc(N4CCNCC4)cn3)nc2n1C1CCCC1` [RIBOCICLIB] as the compound, how does the Kd read?
A: > 30 µM (inactive)

What follows are compounds tested against Hepatocyte growth factor receptor (Homo sapiens, UniProt P08581).
Chain of Hepatocyte growth factor receptor (P08581 whole entry): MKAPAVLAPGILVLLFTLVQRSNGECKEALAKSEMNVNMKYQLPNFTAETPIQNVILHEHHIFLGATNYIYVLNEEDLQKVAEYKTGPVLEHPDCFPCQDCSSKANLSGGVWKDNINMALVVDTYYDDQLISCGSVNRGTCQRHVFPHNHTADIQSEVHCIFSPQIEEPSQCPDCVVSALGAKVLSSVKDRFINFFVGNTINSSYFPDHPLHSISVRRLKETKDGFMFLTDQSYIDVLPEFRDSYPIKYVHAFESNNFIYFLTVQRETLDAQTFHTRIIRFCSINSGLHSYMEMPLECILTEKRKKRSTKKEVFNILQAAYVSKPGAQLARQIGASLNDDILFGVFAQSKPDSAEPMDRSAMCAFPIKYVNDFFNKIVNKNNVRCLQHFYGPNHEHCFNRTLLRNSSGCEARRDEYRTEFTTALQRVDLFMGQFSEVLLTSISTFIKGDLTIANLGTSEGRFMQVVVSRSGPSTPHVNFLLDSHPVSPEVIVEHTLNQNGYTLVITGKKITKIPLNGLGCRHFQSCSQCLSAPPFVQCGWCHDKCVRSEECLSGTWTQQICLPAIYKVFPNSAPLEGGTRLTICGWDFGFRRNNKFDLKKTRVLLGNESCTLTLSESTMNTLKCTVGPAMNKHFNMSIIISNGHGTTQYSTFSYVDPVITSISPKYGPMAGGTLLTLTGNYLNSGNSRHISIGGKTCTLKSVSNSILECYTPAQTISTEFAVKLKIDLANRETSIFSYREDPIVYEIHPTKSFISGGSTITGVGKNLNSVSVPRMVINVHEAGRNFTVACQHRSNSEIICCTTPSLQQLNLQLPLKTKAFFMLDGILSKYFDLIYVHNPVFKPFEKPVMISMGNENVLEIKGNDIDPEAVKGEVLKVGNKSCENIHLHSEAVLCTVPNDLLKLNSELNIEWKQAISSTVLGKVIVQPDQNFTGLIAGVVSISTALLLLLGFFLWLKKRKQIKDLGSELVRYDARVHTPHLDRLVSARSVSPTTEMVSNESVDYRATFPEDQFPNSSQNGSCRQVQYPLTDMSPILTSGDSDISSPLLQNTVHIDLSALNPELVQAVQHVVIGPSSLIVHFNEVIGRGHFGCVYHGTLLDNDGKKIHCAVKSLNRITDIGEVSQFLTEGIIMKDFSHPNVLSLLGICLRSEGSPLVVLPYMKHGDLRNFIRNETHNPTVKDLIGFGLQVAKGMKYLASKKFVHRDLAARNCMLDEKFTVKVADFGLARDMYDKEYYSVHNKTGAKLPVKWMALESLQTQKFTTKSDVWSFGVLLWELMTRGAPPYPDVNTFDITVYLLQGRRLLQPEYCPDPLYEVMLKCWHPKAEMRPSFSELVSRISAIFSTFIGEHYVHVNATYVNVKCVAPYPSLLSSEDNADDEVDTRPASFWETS

Q: `Cn1cc(-c2ccc(F)c(C(F)(F)F)c2)nc1C1CCN(c2ncnc3[nH]ncc23)CC1` [LY-2584702] was tested. Which Kd did it give?
A: > 30 µM (inactive)

Q: Which Kd does the source give for `C1=C/COCc2cc(ccc2OCCN2CCCC2)Nc2nccc(n2)-c2cccc(c2)COC/1` [PACRITINIB] here?
A: > 30 µM (inactive)

Q: Which Kd does the source give for `CNC(=O)c1ccc(C)c(-n2c(C)cc(OCc3ccc(F)cc3F)c(Br)c2=O)c1` [PH-797804] here?
A: > 30 µM (inactive)

Q: How did the Kd turn out when `CN(C)C(=O)c1cc2cnc(Nc3ccc(N4CCNCC4)cn3)nc2n1C1CCCC1` [RIBOCICLIB] was run?
A: > 30 µM (inactive)

These compounds were tested against High affinity nerve growth factor receptor (Homo sapiens, UniProt P04629).
Chain of High affinity nerve growth factor receptor (P04629 whole entry): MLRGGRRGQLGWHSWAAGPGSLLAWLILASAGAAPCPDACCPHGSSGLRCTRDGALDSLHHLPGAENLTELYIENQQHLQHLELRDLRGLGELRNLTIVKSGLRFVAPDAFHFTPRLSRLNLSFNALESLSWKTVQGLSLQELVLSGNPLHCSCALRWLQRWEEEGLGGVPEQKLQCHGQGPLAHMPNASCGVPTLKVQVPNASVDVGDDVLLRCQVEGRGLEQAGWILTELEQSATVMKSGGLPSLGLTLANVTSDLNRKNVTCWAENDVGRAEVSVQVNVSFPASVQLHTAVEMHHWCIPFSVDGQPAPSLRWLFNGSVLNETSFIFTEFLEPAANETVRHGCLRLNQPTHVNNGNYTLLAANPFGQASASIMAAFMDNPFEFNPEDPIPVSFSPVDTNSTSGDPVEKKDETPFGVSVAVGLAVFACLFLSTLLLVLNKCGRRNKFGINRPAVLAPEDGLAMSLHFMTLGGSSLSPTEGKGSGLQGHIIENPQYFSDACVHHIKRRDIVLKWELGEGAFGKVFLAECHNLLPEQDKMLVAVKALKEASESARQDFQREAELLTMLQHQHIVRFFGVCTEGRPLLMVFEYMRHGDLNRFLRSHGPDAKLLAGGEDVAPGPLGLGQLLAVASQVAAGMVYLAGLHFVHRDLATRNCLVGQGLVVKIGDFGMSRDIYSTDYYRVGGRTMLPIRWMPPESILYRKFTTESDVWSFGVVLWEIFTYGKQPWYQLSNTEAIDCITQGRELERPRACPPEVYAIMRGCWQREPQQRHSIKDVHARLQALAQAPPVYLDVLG

Q: Which Kd does the source give for `Cn1cc(-c2ccc(F)c(C(F)(F)F)c2)nc1C1CCN(c2ncnc3[nH]ncc23)CC1` [LY-2584702] here?
A: > 30 µM (inactive)

Q: `C1=C/COCc2cc(ccc2OCCN2CCCC2)Nc2nccc(n2)-c2cccc(c2)COC/1` [PACRITINIB] was tested. Which Kd did it give?
A: > 30 µM (inactive)

Q: Which Kd does the source give for `CN(C)C(=O)c1cc2cnc(Nc3ccc(N4CCNCC4)cn3)nc2n1C1CCCC1` [RIBOCICLIB] here?
A: > 30 µM (inactive)

The compounds below were run against Serine/threonine-protein kinase PAK 6 (Homo sapiens, UniProt Q9NQU5).
Chain of Serine/threonine-protein kinase PAK 6 (Q9NQU5 whole entry): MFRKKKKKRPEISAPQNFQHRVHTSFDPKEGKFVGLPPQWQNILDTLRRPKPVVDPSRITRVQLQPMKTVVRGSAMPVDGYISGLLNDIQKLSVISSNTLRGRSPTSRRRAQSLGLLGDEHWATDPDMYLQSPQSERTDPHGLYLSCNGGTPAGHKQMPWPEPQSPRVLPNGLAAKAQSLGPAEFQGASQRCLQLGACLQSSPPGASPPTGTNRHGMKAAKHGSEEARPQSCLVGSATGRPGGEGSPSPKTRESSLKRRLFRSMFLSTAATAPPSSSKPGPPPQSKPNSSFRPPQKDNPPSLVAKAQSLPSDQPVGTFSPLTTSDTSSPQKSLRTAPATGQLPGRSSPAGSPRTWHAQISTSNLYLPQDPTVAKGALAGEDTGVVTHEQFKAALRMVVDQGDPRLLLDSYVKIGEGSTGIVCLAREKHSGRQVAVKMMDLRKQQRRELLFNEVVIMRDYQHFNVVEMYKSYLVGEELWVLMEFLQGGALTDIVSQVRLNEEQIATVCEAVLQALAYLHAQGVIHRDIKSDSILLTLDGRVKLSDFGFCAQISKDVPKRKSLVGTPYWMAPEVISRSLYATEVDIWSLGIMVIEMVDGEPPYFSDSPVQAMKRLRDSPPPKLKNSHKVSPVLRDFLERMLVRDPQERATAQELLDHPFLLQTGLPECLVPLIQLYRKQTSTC

Q: For `CNC(=O)c1ccc(C)c(-n2c(C)cc(OCc3ccc(F)cc3F)c(Br)c2=O)c1` [PH-797804], which Kd is on record?
A: > 30 µM (inactive)

Each compound was assayed against Membrane-associated progesterone receptor component 1 (Homo sapiens, UniProt O00264).
Chain of Membrane-associated progesterone receptor component 1 (O00264 whole entry): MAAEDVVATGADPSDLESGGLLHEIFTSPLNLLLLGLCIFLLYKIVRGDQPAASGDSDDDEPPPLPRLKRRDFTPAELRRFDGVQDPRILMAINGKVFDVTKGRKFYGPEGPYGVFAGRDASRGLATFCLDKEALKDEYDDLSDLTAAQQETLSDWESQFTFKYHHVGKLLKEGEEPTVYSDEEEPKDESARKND

Q: How did the Kd turn out when `Cc1nc(N)sc1-c1ccnc(Nc2ccc(N3CCOCC3)cc2)n1` [CYC-116] was run?
A: > 30 µM (inactive)

Q: Which Kd does the source give for `CN1CCN(c2ccc3nc(-c4c(N)c5c(F)cccc5[nH]c4=O)[nH]c3c2)CC1` [DOVITINIB] here?
A: > 30 µM (inactive)

Q: `CCn1c(-c2nonc2N)nc2c(C#CC(C)(C)O)ncc(OC[C@H]3CCCNC3)c21` [GSK-690693] was tested. Which Kd did it give?
A: > 30 µM (inactive)

Q: For `Cn1cc(-c2ccc(F)c(C(F)(F)F)c2)nc1C1CCN(c2ncnc3[nH]ncc23)CC1` [LY-2584702], which Kd is on record?
A: > 30 µM (inactive)

Q: Which Kd does the source give for `CNC(=O)c1ccc(C)c(-n2c(C)cc(OCc3ccc(F)cc3F)c(Br)c2=O)c1` [PH-797804] here?
A: > 30 µM (inactive)

Q: With `CN(C)C(=O)c1cc2cnc(Nc3ccc(N4CCNCC4)cn3)nc2n1C1CCCC1` [RIBOCICLIB] as the compound, how does the Kd read?
A: > 30 µM (inactive)

Each compound was assayed against Serine/threonine-protein kinase pim-2 (Homo sapiens, UniProt Q9P1W9).
Chain of Serine/threonine-protein kinase pim-2 (Q9P1W9 whole entry): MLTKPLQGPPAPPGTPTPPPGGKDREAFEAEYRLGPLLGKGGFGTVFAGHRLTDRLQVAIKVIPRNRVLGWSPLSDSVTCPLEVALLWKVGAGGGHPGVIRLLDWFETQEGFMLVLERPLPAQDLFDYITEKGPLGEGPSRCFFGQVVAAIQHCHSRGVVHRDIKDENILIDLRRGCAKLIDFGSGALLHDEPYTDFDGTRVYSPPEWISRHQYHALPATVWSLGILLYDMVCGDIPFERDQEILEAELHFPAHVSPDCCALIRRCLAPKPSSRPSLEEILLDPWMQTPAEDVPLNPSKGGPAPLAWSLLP

Q: For `Cn1cc(-c2ccc(F)c(C(F)(F)F)c2)nc1C1CCN(c2ncnc3[nH]ncc23)CC1` [LY-2584702], which Kd is on record?
A: > 30 µM (inactive)

Q: With `CN(C)C(=O)c1cc2cnc(Nc3ccc(N4CCNCC4)cn3)nc2n1C1CCCC1` [RIBOCICLIB] as the compound, how does the Kd read?
A: > 30 µM (inactive)

These compounds were tested against Dual specificity testis-specific protein kinase 1 (Homo sapiens, UniProt Q15569).
Chain of Dual specificity testis-specific protein kinase 1 (Q15569 whole entry): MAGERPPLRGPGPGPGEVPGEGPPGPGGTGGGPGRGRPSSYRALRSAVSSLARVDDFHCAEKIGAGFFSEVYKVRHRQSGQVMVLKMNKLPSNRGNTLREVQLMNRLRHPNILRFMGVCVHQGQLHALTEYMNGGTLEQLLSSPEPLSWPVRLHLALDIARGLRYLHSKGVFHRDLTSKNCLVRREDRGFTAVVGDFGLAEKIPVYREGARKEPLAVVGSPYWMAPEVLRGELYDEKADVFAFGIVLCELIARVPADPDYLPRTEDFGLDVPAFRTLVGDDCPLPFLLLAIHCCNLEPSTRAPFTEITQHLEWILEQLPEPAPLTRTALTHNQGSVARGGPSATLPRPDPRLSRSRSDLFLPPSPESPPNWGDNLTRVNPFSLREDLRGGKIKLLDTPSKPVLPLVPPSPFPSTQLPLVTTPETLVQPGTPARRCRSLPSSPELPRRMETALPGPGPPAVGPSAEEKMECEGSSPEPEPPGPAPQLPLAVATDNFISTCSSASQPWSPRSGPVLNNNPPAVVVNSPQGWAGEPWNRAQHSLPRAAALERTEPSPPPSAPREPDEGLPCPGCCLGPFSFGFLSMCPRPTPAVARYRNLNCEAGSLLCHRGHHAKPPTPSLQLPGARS

Q: Which Kd does the source give for `Cn1cc(-c2ccc(F)c(C(F)(F)F)c2)nc1C1CCN(c2ncnc3[nH]ncc23)CC1` [LY-2584702] here?
A: > 30 µM (inactive)

Q: How did the Kd turn out when `CNC(=O)c1ccc(C)c(-n2c(C)cc(OCc3ccc(F)cc3F)c(Br)c2=O)c1` [PH-797804] was run?
A: > 30 µM (inactive)

Q: For `CN(C)C(=O)c1cc2cnc(Nc3ccc(N4CCNCC4)cn3)nc2n1C1CCCC1` [RIBOCICLIB], which Kd is on record?
A: > 30 µM (inactive)
